Assay results: publication PMC8836076, “A Fungal Versatile GH10 Endoxylanase and Its Glycosynthase Variant: Synthesis of Xylooligosaccharides and Glycosides of Bioactive Phenolic Compounds” (International Journal of Molecular Sciences, 2022)

Biological target: T1, rXynSOS (Talaromyces amestolkiae, UniProt A0A364LCP8, E255G)
T1 construct: gene BHQ10_009513; mature protein (389 aa, GH10 domain + C-terminal CBM1), 19-aa signal peptide removed, pPIC9 in Pichia pastoris GS115, no tag, starts QLNTAAK (from primer), glycosylated, 53 kDa monomer
T1 sequence (A0A364LCP8 entry or part of it E255G): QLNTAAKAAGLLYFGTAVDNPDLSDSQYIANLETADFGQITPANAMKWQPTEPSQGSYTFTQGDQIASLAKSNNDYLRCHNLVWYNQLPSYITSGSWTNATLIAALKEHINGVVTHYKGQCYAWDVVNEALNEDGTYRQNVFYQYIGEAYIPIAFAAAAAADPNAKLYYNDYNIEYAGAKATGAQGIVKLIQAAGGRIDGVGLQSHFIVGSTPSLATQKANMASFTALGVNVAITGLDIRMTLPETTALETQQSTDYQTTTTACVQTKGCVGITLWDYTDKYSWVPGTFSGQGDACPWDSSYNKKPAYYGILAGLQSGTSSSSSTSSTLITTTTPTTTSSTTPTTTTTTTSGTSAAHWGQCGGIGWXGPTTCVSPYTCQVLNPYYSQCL
Assay: ESI-MS and NMR of xylooligosaccharide synthesis
Type: biochemical
Settings: glycosynthase; 20 mM X2F as only reactant (donor and acceptor), 50 mM sodium acetate pH 5, 25 °C, 16 h

In the case of O[C@@H]1[C@@H](O)[C@H](O[C@@H]2CO[C@H](F)[C@H](O)[C@H]2O)OC[C@H]1O [X2F, xylobiose-fluoride], the “ESI-MS and NMR of xylooligosaccharide synthesis” value is reported as “reaction with X2F as the only reactant molecule (no acceptor was added)”.
